Earlier results as cited in patent US9616098B2, “Formulations of vancomycin” (SCIDOSE, LLC, priority 2013, dated 2017).

CN[C@H](CC(C)C)C(=O)N[C@H]1C(=O)N[C@@H](CC(N)=O)C(=O)N[C@H]2C(=O)N[C@H]3C(=O)N[C@H](C(=O)N[C@H](C(=O)O)c4cc(O)cc(O)c4-c4cc3ccc4O)[C@H](O)c3ccc(c(Cl)c3)Oc3cc2cc(c3O[C@@H]2O[C@H](CO)[C@@H](O)[C@H](O)[C@H]2O[C@H]2C[C@](C)(N)[C@H](O)[C@H](C)O2)Oc2ccc(cc2Cl)[C@H]1O [Vancomycin]
stable in water after reconstitution: approximately 24 hours
